Test results reported in patent US11229629B2, “Inhibitors of mitochondrial fission” (Queen's University at Kingston, priority 2019, dated 2022).

Assays:
[1] = test system: Drp1 knocked-down A549 cells; experiment: MFC in Drp1 knocked-down A549 cells with FCCP-induced fission; assay type: cell-based, human; conditions: FIG. 5B
Experimental: (§4) Higher MFC indicates more fragmented mitochondrial network.
Carbonyl cyanide-4-(trifluoromethoxy) phenylhydrazone (FCCP) was added, a mitochondrial oxidative phosphorylation uncoupler, to cells treated with siDrp1.

[2] = test system: SW 900; experiment: Mitochondrial fragmentation count in SW 900 cells; assay type: cell-based; conditions: 0.1-0.5 μM of Drpitor1a
[3] = test system: SK-MES-1; experiment: Mitochondrial fragmentation count in SK-MES-1 cells; assay type: cell-based; conditions: 0.1-0.5 μM of Drpitor1a
[4] = test system: SW 900; experiment: Apoptosis assay (Annexin V/PI) in SW 900 cells; assay type: cell-based; conditions: 0.25-0.5 μM of Drpitor1a
Experimental: (§5) Apoptosis assay: Cell apoptosis was determined by the Annexin V+ propidium iodide (PI) method using Alexa Fluor 488 Annexin V/Dead Cell Apoptosis Kit (available from ThermoFisher Scientific). A549 cells were collected 48 hours after compound treatment. Percentage of Annexin V (+) and PI (+) cells was determined using SONY S[MUT] flow cytometer and compared between control group and treatment groups.

[5] = test system: Daoy cells (Medulloblastoma cells); experiment: Cell proliferation of Daoy cells; assay type: cell-based; conditions: 0.15~2.5 μM of Drpitor1a, Ctrl = 1
Experimental: (§1) Cell proliferation assay: Cell proliferation was measured 48 hours post compound treatment using Click-iT® EdU Alexa Fluor® 488 Imaging Kit (available from Thermo Fisher Scientific) according to manufacturer's protocol. 1.0×10^5 cells were seeded per well in 6-well plates and compounds were added 24 hours after seeding. EdU was allowed to incorporate 10 hours before flow cytometry. Percentage of cells incorporated with EdU in each group was determined using SONY SH800S flow cytometer and compared between control group and treatment groups.

[6] = test system: U87 (Glioblastoma cells); experiment: Cell proliferation of U87 cells; assay type: cell-based; conditions: 0.15~2.5 μM of Drpitor1a, Ctrl = 1
Experimental: as §1

[7] = test system: MCF7; experiment: Cell proliferation assay (EdU) in MCF7 cells; assay type: cell-based; conditions: 0.5 μM of Drpitor1a
Experimental: as §1

[8] = test system: mitochondrial complex I; experiment: Mitochondrial complex I activity in A549 cells; assay type: cell-based, human; conditions: mdivi-1 50 μM, Drpitor1a 0.5 μM; FIG. 5C
[9] = test system: MCF7; experiment: Mitochondrial fragmentation count in MCF7 cells; assay type: cell-based; conditions: 0.1-0.5 μM of Drpitor1a
[10] = test system: SK-LU-1; experiment: Cell proliferation assay (EdU) in SK-LU-1 cells; assay type: cell-based; conditions: 0.5 μM of Drpitor1a
Experimental: as §1

[11] = test system: A549; experiment: Colony formation assay in A549 cells; assay type: cell-based, human; conditions: 0.5 μM of Drpitor1a
Experimental: (§2) Colony formation assay: Cells were seeded in 6-well plates and optimal concentrations of compounds were added 24 hours after seeding. After 48 hours of compound treatment, cells were disassociated with 0.25% trypsin-EDTA (25200114, Gibco, Burlington, ON, Canada) and reseeded in a 48-well plate at a density of 200 live cells/mL. After 7-10 days of culture, cells were fixed with 4% paraformaldehyde and then stained with 1% crystal violet (V5265, Millipore Sigma, Etobicoke, ON, Canada). Images of cell colonies were taken by a Panasonic LX3 digital camera (Kadoma, Osaka, Japan).

[12] = test system: SK-LU-1; experiment: Mitochondrial fragmentation count in SK-LU-1 cells; assay type: cell-based; conditions: 0.1-0.5 μM of Drpitor1a
[13] = test system: SK-MES-1; experiment: Colony formation assay in SK-MES-1 cells; assay type: cell-based; conditions: 0.5 μM of Drpitor1a
Experimental: as §2

[14] = test system: MCF7; experiment: Colony formation assay in MCF7 cells; assay type: cell-based; conditions: 0.5 μM of Drpitor1a
Experimental: as §2

[15] = test system: A549; experiment: Cell proliferation assay (EdU) in A549 cells; assay type: cell-based, human; conditions: for Cell proliferation: A549, 0.5 μM of Drpitor1a, 48 hours; for Percentage of EdU incorporated cells: mdivi-1 50 μM, Drpitor1 0.75 μM, Drpitor1a 0.5 μM, FIG. 6A
Experimental: as §1

[16] = test system: SK-MES-1; experiment: Cell proliferation assay (EdU) in SK-MES-1 cells; assay type: cell-based; conditions: 0.5 μM of Drpitor1a
Experimental: as §1

[17] = test system: mutant mouse Drp1 K38A in siDrp1-treated A549 cells; experiment: MFC in A549 cells transfected with siDrp1+mDrp1 K38A; conditions: FIG. 5A
[18] = test system: PAH PASMC cell lines; experiment: Cell proliferation of PAH PASMC cell lines; assay type: cell-based, human; design: unit: % EdU-positive cells; conditions: 1.0 μM of Drpitor1a
Experimental: as §1

[19] = test system: A549; experiment: Apoptosis assay (Annexin V/PI) in A549 cells; assay type: cell-based, human; conditions: 1.0 μM of Drpitor1, 0.25-0.5 μM of Drpitor1a, 48 hours
Experimental: Apoptosis assay: Cell apoptosis was determined by the Annexin V+ propidium iodide (PI) method using Alexa Fluor 488 Annexin V/Dead Cell Apoptosis Kit (available from ThermoFisher Scientific). A549 cells were collected 48 hours after compound treatment. Percentage of Annexin V (+) and PI (+) cells was determined using SONY S[…] flow cytometer and compared between control group and treatment groups.

[20] = test system: right ventricle ischemia-reperfusion injury; conditions: 0.5 μM in perfusate; ex vivo rat heart
Experimental: Briefly, Sprague-Dawley rats were anesthetized with an intraperitoneal injection of ketamine (75 mg/kg)/xylazine (10 mg/kg). The hearts were harvested and perfused with oxygenated Krebs' solution at 37° C. at a constant pressure of 85 cmH2O on a Langendorff apparatus. RV pressure was measured by a fluid-filled balloon placed in the RV connected to a pressure transducer (Harvard Apparatus; Holliston, Mass., USA). High fidelity signals were recorded using PowerLab 8/35 data acquisition hardware and analyzed using LabChart Pro 8 software (AD Instruments; Colorado Springs, Colo., USA).
IR protocol: Hearts were stabilized for 10 minutes before the IR experiment. Two consecutive cycles of 20 minutes of global ischemia followed by 20 minutes of reperfusion were performed. […] Same volume of DMSO was used as a negative control for test compound. […]
Mitochondrial superoxide imaging and quantification: RV tissues collected from Langendorff RV-IR experiments were cut into pieces of 1×1×1 mm^3 and were incubated with 5 μM of MitoSOX™ Red mitochondrial superoxide indicator (available from Molecular Probes™) at 37° C. for 15 minutes. […] Intensity of the MitoSOX™ Red mitochondrial superoxide indicator was analyzed by the Leica LAS X software.
Test compound was added to the perfusate prior to IR. […] After IR, RV myocardium was collected and mitochondrial superoxide was measured.

[21] = test system: A549 cells xenotransplant tumor; experiment: In vivo xenotransplant tumor model of human lung cancer; design: species or system mouse; conditions: 10 mg/kg intraperitoneally and intratumorally; end of study
Source text: (§3) In vivo xenotransplant tumor model: BALB/c Rag2^−/−; IL2Rgc^−/− double knock out mice were kindly provided by Dr. M Ito, Central Institute for Experimental Animals, Kawasaki, Japan and were bred in the Animal Facility at Queen's University. Animal protocols were approved by the University Animal Care Committee of Queen's University. A xenotransplant mouse model of human lung cancer was established by subcutaneous injection of A549 cells ([…] per tumor) at the back flank regions. […] Equal volumes of solvents were injected as control. […] Tumor length and width was measured every 2 days. Animals were euthanized with cervical dislocation under 5% isoflurane inhalation followed by tumor collection. Blood samples were collected for liver and kidney toxicity studies just before euthanasia.

[22] = test system: SK-LU-1; experiment: Colony formation assay in SK-LU-1 cells; assay type: cell-based; conditions: 0.5 μM of Drpitor1a
Experimental: as §2

[23] = test system: U373 (Glioblastoma cells); experiment: Cell proliferation of U373 cells; assay type: cell-based; conditions: 0.15~2.5 μM of Drpitor1a, Ctrl = 87.2
Experimental: as §1

[24] = test system: SK-LU-1; experiment: Apoptosis assay (Annexin V/PI) in SK-LU-1 cells; assay type: cell-based; conditions: 0.25-0.5 μM of Drpitor1a
Experimental: as §5

[25] = Liver and kidney toxicity (blood samples), body weight in xenotransplant mice
Source text: as §3

[26] = test system: SK-MES-1; experiment: Apoptosis assay (Annexin V/PI) in SK-MES-1 cells; assay type: cell-based; conditions: 0.25-0.5 μM of Drpitor1a
Experimental: as §5

[27] = test system: A549 cells; experiment: Mitochondrial morphology analysis (MFC, machine learning) in A549 cells; conditions: for Concentration (dose) at which mitochondrial fission was inhibited: in vitro screening
Experimental: Cell Culture: A549 cells were purchased from the American Type Culture Collection (ATCC) and were cultured in Dulbecco's Modified Eagle's Medium (DMEM) (D5796, Sigma Aldrich) supplemented with 10% fetal bovine serum (FBS). Cells were cultured at 37° C. in a humidified incubator balanced with 5% CO2.
Compound solution preparation for in vitro experiments: Candidate compounds were dissolved in anhydrous Dimethyl Sulfoxide (DMSO) (available from Sigma Aldrich), filtered by a 0.20 μm PTFE filter and added to culture medium to make a working solution at designated concentrations. Final concentration of DMSO in culture medium was s 0.1%. Same volume of DMSO was used as control.
as §4
Mitochondrial morphology was used as an indicator of Drp1 activity in the in vitro screening, such that Drp1 inhibitors would be identified by an increase in fusion.

[28] = test system: SW 900; experiment: Cell proliferation assay (EdU) in SW 900 cells; assay type: cell-based; conditions: 0.5 μM of Drpitor1a
Experimental: as §1

[29] = 10 mg/kg of Drpitor1a, blood before euthanasia

## N#CC(C#N)=NNc1ccc(OC(F)(F)F)cc1 [FCCP, carbonyl cyanide-4-(trifluoromethoxy)phenylhydrazone, reference compound]
[1]
  Mitochondrial fission in Drp1 knocked-down A549 cells: caused mitochondrial fission

## O=C1c2ccncc2C(=O)c2c1[nH]c1ccccc21 [Drpitor1a]
[2]
  MFC: 0.3345 ± 0.0309
[3]
  MFC: 0.2291 ± 0.02596
[4]
  Apoptosis: 5.686 ± 0.1402
[5]
  Cell proliferation: 0.7078 ± 0.005519
[6]
  Cell proliferation: 0.1084 ± 0.001408
[7]
  Cell proliferation: 3.437 ± 0.2325
[8]
  Mitochondrial complex I activity in A549 cells: no significant change
[9]
  MFC: 0.5479 ± 0.05737
[10]
  Cell proliferation: 5.04 ± 0.5525
[11]
  Colony number: 1.5 ± 0.2236
[12]
  MFC: 0.3367 ± 0.03623
[13]
  Colony number: 0 ± 0
[14]
  Colony number: 0 ± 0
[15]
  Dose dependence of effect on cell proliferation: dose-dependent
  Cell proliferation: 46 ± 0.8505
  Percentage of EdU incorporated cells: significantly reduced
[16]
  Cell proliferation: 5.523 ± 0.3613
[17]
  MFC in cells transfected with siDrp1+mDrp1 K38A: this reduction was not seen
[18]; PAH PASMC cell line P1
  Cell proliferation: 3.367 ± 0.3335
[18]; PAH PASMC cell line P3
  Cell proliferation: 0.7167 ± 0.05608
[18]; PAH PASMC cell line P7
  Cell proliferation: 9.68 ± 0.563
[19]
  Apoptosis: 25.06 ± 0.4675
[20]
  Mean mitochondrial volume of cardiomyocytes during RV-IR: increased mean mitochondrial volume
  MitoSOX intensity (mitochondrial superoxide) in RV during IR: lower MitoSOX intensity
[21]
  Reduction in tumor volume: 43.8%
  Reduction in tumor weight: 43.9%
[22]
  Colony number: 0.6667 ± 0.3333
[23]
  Cell proliferation: 45.33 ± 0.2728
[24]
  Apoptosis: 3.6 ± 0.2292
[25]; [29]
  Albumin: 26.75 ± 0.9465 g/L
  BUN: 6.225 ± 1.186 mmol/L
  Cholesterol: 4.188 ± 0.3317 mmol/L
  Total bilirubin: 2.5 ± 0.324 µmol/L
[25]; 10 mg/kg, 22 days of therapy
  Body weight: did not reduce body weight
[26]
  Apoptosis: 2.464 ± 0.131
[27]; A549 cells
  Concentration giving the same degree of inhibition of mitochondrial fission (potency): 0.5 µM
[27]; FIG. 3B
  Percentage area of elongated (filamentous) mitochondria, machine learning: increased percentage area of elongated mitochondria
[1]; A549, Drpitor1a 0.25 μM
  MFC on adding compound to siDrp1+FCCP treatment: reduction of MFC was not seen
[28]
  Cell proliferation: 28.37 ± 0.3712

## COc1cc(-n2c(=S)[nH]c3ccccc3c2=O)c(Cl)cc1Cl [mdivi-1, mitochondrial division inhibitor 1, reference compound]
[5]
  Cell proliferation: 0.8464 ± 0.008105
[6]
  Cell proliferation: 0.9552 ± 0.01912
[7]
  Cell proliferation: 8.217 ± 1.256
[8]
  Mitochondrial complex I activity in A549 cells: no significant change
[10]
  Cell proliferation: 29.5 ± 1.652
[11]
  Colony number: 0.5 ± 0.3416
[13]
  Colony number: 5.5 ± 0.5627
[14]
  Colony number: 7.167 ± 0.7491
[15]
  Cell proliferation: 32.43 ± 1.481
  Percentage of EdU incorporated cells: significantly reduced
[16]
  Cell proliferation: 24.97 ± 3.38
[17]
  MFC in cells transfected with siDrp1+mDrp1 K38A: this reduction was not seen
[18]; PAH PASMC cell line P1
  Cell proliferation: 7.38 ± 0.1762
[18]; PAH PASMC cell line P3
  Cell proliferation: 0.3567 ± 0.04372
[18]; PAH PASMC cell line P7
  Cell proliferation: 7.78 ± 0.1882
[19]
  Apoptosis: 15.3 ± 0.5213
[22]
  Colony number: 2.5 ± 0.4282
[23]
  Cell proliferation: 65.43 ± 0.06667
[27]; A549 cells
  Concentration giving the same degree of inhibition of mitochondrial fission (potency): 25 µM
  Concentration (dose) at which mitochondrial fission was inhibited: 20 µM
[28]
  Cell proliferation: 50.1 ± 0.7211

## N#Cc1cc2c3ccccc3[nH]c2c2ccccc12 [Compound 13]
[27]; A549 cells
  Concentration (dose) at which mitochondrial fission was inhibited: 20 µM
[27]; A549 cells, 17 compounds screened, FIG. 1
  Inhibition of mitochondrial fission (reduction in MFC) in in vitro screening: most significant inhibition of mitochondrial fission
